Test results as given in US4345938A, “Herbicidal 2-haloacetanilides” (Monsanto Company, priority 1980, dated 1982).
Like-named read-outs stand apart in the source and are kept apart here.

How the values were obtained:
Format in all cases: in vivo
Monochoria vaginalis = assay: Field transplant rice test, applied 9 DAT, MV; settings: for inhibition at 375 g/ha / inhibition at 750 g/ha / inhibition at 1500 g/ha / inhibition at 3000 g/ha: Pontederia vaginalis, 216 h, read-out: Percent Inhibition, MV; for inhibition at 375 g/ha: 0.375 Kg/Ha; for inhibition at 750 g/ha: 0.75 Kg/Ha; for inhibition at 1500 g/ha: 1.5 Kg/Ha; for inhibition at 3000 g/ha: 3.0 Kg/Ha
Description: (§1) In the discussion of data below, occasional reference is made to herbicide application rates symbolized as "GR15 " and "GR85 "; these rates are given in kilograms per hectare (kg/ha) which are convertible into pounds per acre (lbs/A) by dividing the kg/ha rate by 1.12.
(§2) A further guide to the effectiveness of a chemical as a selective herbicide is the "selectivity factor" ("SF") for a herbicide in given crops and weeds. The selectivity factor is a measure of the relative degree of crop safety and weed injury and is expressed in terms of the GR15 /GR85 ratio, i.e., the GR15 rate for the crop divided by the GR85 rate for the weed, both rates in kg/ha (lb/A.)
(§3) The test data in Table III for all compounds was obtained under identical test conditions. The weeds used in the tests herein have the following abbreviations in the tables: Echinochloa crus-galli (EC), Monochloria vaginalis (MV), Cyperus Serotinus (CS), Eleocharis Kuroguwai (EK) and Sagittaria trifolia (ST).
(§4) In further comparative tests, a preferred compound of this invention (Example 1) was tested in the field with prior art Compounds A-D. These tests were conducted under conditions reflecting herbicide application times generally favorable to all herbicides in the test. The timing of application of herbicides to transplant rice is very important, whether, as in some instances, prior to transplanting the rice; in other instances, at the time of transplanting or else after transplanting. Application times are conventionally referred to as "days before transplant" (DBT) or "days after transplant" ("DAT"). The field test data in Table IV was obtained from a test in which the herbicides were applied at the time of transplant, i.e., "0 DAT", with observations being made weekly up to six weeks after transplant ("WAT") beginning at two weeks after transplant; for illustrative and representative purposes, only the early, middle and late period observations, i.e., 2 WAT, 4 WAT and 6 WAT, are shown in Table IV. The data in Table IV is for rates of application common to all herbicides in the test, i.e., from 3.0 kg/ha (2.67 lb/A) down to 0.375 kg/ha (0.34 lb/A). All herbicides were applied at their actual or expected use rates, i.e., as granules containing 2.5% by weight herbicide for the compound of Example 1, Compounds B, C and D and 5.0% by weight for Compound A.
(§5) In Table V are presented field data showing the relative performance of the compound of Example 1 and Compounds A-D applied 9 DAT, with observations being made weekly from 3 WAT to 7 WAT; again, for illustrative and representative purposes, only the early, middle and late period observations are reported in Table V, the herbicide rates and concentrations of active ingredients the same as is shown in Table IV.

Sagittaria trifolia = assay: Field transplant rice test, applied 0 DAT, ST; settings: 0 h, read-out: Percent Inhibition, ST; for inhibition at 375 g/ha: 0.375 Kg/Ha; for inhibition at 750 g/ha: 0.75 Kg/Ha; for inhibition at 1500 g/ha: 1.5 Kg/Ha; for inhibition at 3000 g/ha: 3.0 Kg/Ha
Procedure: as §3, §4

Echinochloa crus-galli [1] = assay: Field transplant rice test, applied 0 DAT, EC; settings: 0 h, read-out: Percent Inhibition, EC; for inhibition at 375 g/ha: 0.375 Kg/Ha; for inhibition at 750 g/ha: 0.75 Kg/Ha; for inhibition at 1500 g/ha: 1.5 Kg/Ha; for inhibition at 3000 g/ha: 3.0 Kg/Ha
Procedure: as §3, §4

Rice = assay: Field transplant rice test, applied 9 DAT, rice injury; settings: Oryza sativa, 216 h, read-out: Percent Inhibition, Rice; for inhibition at 375 g/ha: 0.375 Kg/Ha; for inhibition at 750 g/ha: 0.75 Kg/Ha; for inhibition at 1500 g/ha: 1.5 Kg/Ha; for inhibition at 3000 g/ha: 3.0 Kg/Ha
Procedure: as §4, §5

Echinochloa crus-galli [2] = assay: Field transplant rice test, applied 9 DAT, EC; settings: for inhibition at 375 g/ha / inhibition at 750 g/ha / inhibition at 1500 g/ha / inhibition at 3000 g/ha: Echinochloa crus-galli, 216 h, read-out: Percent Inhibition, EC; for inhibition at 375 g/ha: 0.375 Kg/Ha; for inhibition at 750 g/ha: 0.75 Kg/Ha; for inhibition at 1500 g/ha: 1.5 Kg/Ha; for inhibition at 3000 g/ha: 3.0 Kg/Ha
Description: as §1, §2, §3, §4, §5

Question: What does the source list for `CCCCOCN(C(=O)CCl)c1c(C)cccc1C(C)(C)C` [Compound C, 2'-methyl-6'-tert-butyl-N-(n-butoxymethyl)-2-chloroacetanilide]?
Answer: inhibition at 375 g/ha (Monochoria vaginalis; 3 WAT): 97%; inhibition at 375 g/ha (Monochoria vaginalis; 5 WAT): 98%; inhibition at 375 g/ha (Monochoria vaginalis; 7 WAT): 60%; inhibition at 750 g/ha (Monochoria vaginalis; 3 WAT): 100%; inhibition at 750 g/ha (Monochoria vaginalis; 5 WAT): 100%; inhibition at 750 g/ha (Monochoria vaginalis; 7 WAT): 100%; inhibition at 1500 g/ha (Monochoria vaginalis; 3 WAT): 100%; inhibition at 1500 g/ha (Monochoria vaginalis; 5 WAT): 100%; inhibition at 1500 g/ha (Monochoria vaginalis; 7 WAT): 100%; inhibition at 3000 g/ha (Monochoria vaginalis; 3 WAT): 100%; inhibition at 3000 g/ha (Monochoria vaginalis; 5 WAT): 100%; inhibition at 3000 g/ha (Monochoria vaginalis; 7 WAT): 100%; selectivity factor (GR15/GR85), MV in transplant rice (Monochoria vaginalis; between 3 WAT and 7 WAT): 8; inhibition at 375 g/ha (Sagittaria trifolia; 2 WAT): 30%; inhibition at 375 g/ha (Sagittaria trifolia; 4 WAT): 5%; inhibition at 375 g/ha (Sagittaria trifolia; 6 WAT): 0%; inhibition at 750 g/ha (Sagittaria trifolia; 2 WAT): 33%; inhibition at 750 g/ha (Sagittaria trifolia; 4 WAT): 18%; inhibition at 750 g/ha (Sagittaria trifolia; 6 WAT): 8%; inhibition at 1500 g/ha (Sagittaria trifolia; 2 WAT): 38%; inhibition at 1500 g/ha (Sagittaria trifolia; 4 WAT): 30%; inhibition at 1500 g/ha (Sagittaria trifolia; 6 WAT): 17%; inhibition at 3000 g/ha (Sagittaria trifolia; 2 WAT): 53%; inhibition at 3000 g/ha (Sagittaria trifolia; 4 WAT): 35%; inhibition at 3000 g/ha (Sagittaria trifolia; 6 WAT): 18%; inhibition at 375 g/ha (Echinochloa crus-galli [1]; 2 WAT): 98%; inhibition at 375 g/ha (Echinochloa crus-galli [1]; 4 WAT): 100%; inhibition at 375 g/ha (Echinochloa crus-galli [1]; 6 WAT): 98%; inhibition at 750 g/ha (Echinochloa crus-galli [1]; 2 WAT): 100%; inhibition at 750 g/ha (Echinochloa crus-galli [1]; 4 WAT): 100%; inhibition at 750 g/ha (Echinochloa crus-galli [1]; 6 WAT): 100%; inhibition at 1500 g/ha (Echinochloa crus-galli [1]; 2 WAT): 100%; inhibition at 1500 g/ha (Echinochloa crus-galli [1]; 4 WAT): 100%; inhibition at 1500 g/ha (Echinochloa crus-galli [1]; 6 WAT): 100%; inhibition at 3000 g/ha (Echinochloa crus-galli [1]; 2 WAT): 98%; inhibition at 3000 g/ha (Echinochloa crus-galli [1]; 4 WAT): 100%; inhibition at 3000 g/ha (Echinochloa crus-galli [1]; 6 WAT): 100%; inhibition at 375 g/ha (Rice; 3 WAT): 17%; inhibition at 375 g/ha (Rice; 5 WAT): 8%; inhibition at 375 g/ha (Rice; 7 WAT): 10%; inhibition at 750 g/ha (Rice; 3 WAT): 10%; inhibition at 750 g/ha (Rice; 5 WAT): 7%; inhibition at 750 g/ha (Rice; 7 WAT): 8%; inhibition at 1500 g/ha (Rice; 3 WAT): 18%; inhibition at 1500 g/ha (Rice; 5 WAT): 15%; inhibition at 1500 g/ha (Rice; 7 WAT): 13%; inhibition at 3000 g/ha (Rice; 3 WAT): 10%; inhibition at 3000 g/ha (Rice; 5 WAT): 5%; inhibition at 3000 g/ha (Rice; 7 WAT): 8%; inhibition at 375 g/ha (Echinochloa crus-galli [2]; 3 WAT): 82%; inhibition at 375 g/ha (Echinochloa crus-galli [2]; 5 WAT): 78%; inhibition at 375 g/ha (Echinochloa crus-galli [2]; 7 WAT): 82%; inhibition at 750 g/ha (Echinochloa crus-galli [2]; 3 WAT): 92%; inhibition at 750 g/ha (Echinochloa crus-galli [2]; 5 WAT): 95%; inhibition at 750 g/ha (Echinochloa crus-galli [2]; 7 WAT): 97%; inhibition at 1500 g/ha (Echinochloa crus-galli [2]; 3 WAT): 98%; inhibition at 1500 g/ha (Echinochloa crus-galli [2]; 5 WAT): 100%; inhibition at 1500 g/ha (Echinochloa crus-galli [2]; 7 WAT): 100%; inhibition at 3000 g/ha (Echinochloa crus-galli [2]; 3 WAT): 98%; inhibition at 3000 g/ha (Echinochloa crus-galli [2]; 5 WAT): 100%; inhibition at 3000 g/ha (Echinochloa crus-galli [2]; 7 WAT): 100%; selectivity factor (GR15/GR85), EC in transplant rice (Echinochloa crus-galli [2]; between 3 WAT and 7 WAT): 4
